Source: patent publication US6395896B2, “Pyridazine derivatives, manufacturing method and related composition” (Shiseido Co., Ltd., priority 1999, dated 2002)

Legend:
[1] = tested on: sunburn; experiment: Ultraviolet rays prevention effect test on a beach (lotion and cream samples); assay type: in vivo, human
Method: The prevention effect test was carried out on a beach during the summer. Equal amounts of sample were applied to the right and left sides of the backs of test subjects. After direct sunlight exposure, the degree of sunburn was evaluated in accordance with the following criteria. Each group consisted of 20 subjects. (Criterion) Remarkable effect: None or almost no sunburn symptom was found. Positive effect: Slight sunburn symptom was found. Negative effect: Strong sunburn symptom was found. (Evaluation) A: Subject of remarkable effect or positive effect is 80% or more. B: Subject of remarkable effect or positive effect is 50% or more and less than 80%. C: Subject of remarkable effect or positive effect is 30% or more and less than 50%. D: Subject of remarkable effect or positive effect is less than 30% (ii) Preparation of sample (A) Lotion [table] Each of water phase and alcohol phase was prepared. Then each was mixed. (B) Cream [table] The propylene glycol was added to ion-exchanged water and was dissolved, which was kept at 70° C. by heating (Water phase). The other components were mixed and melted by heating and was kept at 70° C. (Oil phase). The oil phase was added to the water phase, and an emulsion was formed.. After it was homogeneously emulsified with a homogenixer, it was cooled at 30° C. with stirring well.

[2] = tested on: skin (face); experiment: Skin irritation test: continuous use test; assay type: in vivo, human; conditions: 10 wt % ultraviolet absorbent, twice a day for 4 weeks
Method: Sample (10 wt % of ultraviolet absorbent) is the same as test example 2. The continuous use test by the healthy subjects was carried out with one group of twenty subjects. A proper amount of each sample was applied to the face twice a day for 4 weeks. The evaluation standard of Table 5 was judged. [table] The calculated average score was evaluated by the next standard. A: Average score is 0. B: Average score is over 0 and less than 1. C: Average score is 1 or more, and less than 2. D: Average score is 2 or more.

[3] = Drug stabilization effect (sequestering agent combination); design: key to Sunlight exposure (80 MJ) Appearance: A: No change; B: No almost change; C: Yes change; conditions: for Sunlight exposure (80 MJ) Appearance / Sunlight exposure (80 MJ) Residual yield [%]: amounts wt %
Method: Next, when combined with a sequestering agent, the photostabilization effect and appearance change of a composition for each drug was studied by the following evaluation formulation.
Each test sample was prepared. Appearance change of the samples exposed to sunlight (around 80 MJ) was observed (visual evaluation). Also, residual yield of a drug was measured by liquid chromatography.

[4] = drug 2-o-α-α-glucopyranosyl-L-ascorbic acid 2.0, photostabilizer 0.03 + Sodium metaphosphate 0.03
[5] = drug 2-o-α-α-glucopyranosyl-L-ascorbic acid 2.0, photostabilizer 0.03, no sequestering agent
[6] = drug Dibutylhydroxytoluene 0.01, photostabilizer 0.03 + Sodium metaphosphate 0.03
[7] = drug Dibutylhydroxytoluene 0.01, photostabilizer 0.03, no sequestering agent
[8] = drug Dipotassium glycyrrhizinate 0.05, photostabilizer 0.03 + Sodium metaphosphate 0.03
[9] = drug Dipotassium glycyrrhizinate 0.05, photostabilizer 0.03, no sequestering agent
[10] = drug L-ascorbic acid 2-(dl-α-tocopheryl hydrogen phosphate) potassium salt 0.01, photostabilizer 0.03 + Trisodium hydroxyethyl ethylenediamine triacetate 0.03
[11] = drug L-ascorbic acid 2-(dl-α-tocopheryl hydrogen phosphate) potassium salt 0.01, photostabilizer 0.03, no sequestering agent
[12] = drug Salicylic acid 0.1, photostabilizer 0.03 + Trisodium ethylenediamine tetraacetate 0.03
[13] = drug Salicylic acid 0.1, photostabilizer 0.03, no sequestering agent

melting point: 256 to 257 °C (dec.)
Structure (SMILES): Oc1nncc(N2CCOCC2)c1N1CCOCC1 [4,5-Dimorpholino-3-hydroxypyridazine]
UV prevent effect ([1]; Cream, ultraviolet absorbent 0.0005 wt %): C (Subject of remarkable effect or positive effect is 30% or more and less than 50%.) | UV prevent effect ([1]; Cream, ultraviolet absorbent 0.001 wt %): B (Subject of remarkable effect or positive effect is 50% or more and less than 80%.) | UV prevent effect ([1]; Cream, ultraviolet absorbent 0.1 wt %): A (Subject of remarkable effect or positive effect is 80% or more.) | UV prevent effect ([1]; Cream, ultraviolet absorbent 1 wt %): A (Subject of remarkable effect or positive effect is 80% or more.) | UV prevent effect ([1]; Cream, ultraviolet absorbent 5 wt %): A (Subject of remarkable effect or positive effect is 80% or more.) | UV prevent effect ([1]; Cream, ultraviolet absorbent 10 wt %): A (Subject of remarkable effect or positive effect is 80% or more.) | UV prevent effect ([1]; Cream, ultraviolet absorbent 20 wt %): A (Subject of remarkable effect or positive effect is 80% or more.) | UV prevent effect ([1]; Lotion, ultraviolet absorbent 0.0005 wt %): C (Subject of remarkable effect or positive effect is 30% or more and less than 50%.) | UV prevent effect ([1]; Lotion, ultraviolet absorbent 0.001 wt %): B (Subject of remarkable effect or positive effect is 50% or more and less than 80%.) | UV prevent effect ([1]; Lotion, ultraviolet absorbent 0.01 wt %): A (Subject of remarkable effect or positive effect is 80% or more.) | UV prevent effect ([1]; Lotion, ultraviolet absorbent 1 wt %): A (Subject of remarkable effect or positive effect is 80% or more.) | UV prevent effect ([1]; Lotion, ultraviolet absorbent 5 wt %): A (Subject of remarkable effect or positive effect is 80% or more.) | UV prevent effect ([1]; Lotion, ultraviolet absorbent 10 wt %): A (Subject of remarkable effect or positive effect is 80% or more.) | UV prevent effect ([1]; Lotion, ultraviolet absorbent 20 wt %): A (Subject of remarkable effect or positive effect is 80% or more.) | Judgment (continuous use test, average skin reaction score) ([2]; Cream): A (Average score is 0.) | Judgment (continuous use test, average skin reaction score) ([2]; Lotion): A (Average score is 0.) | Sunlight exposure (80 MJ) Appearance [3, 4]: A | Sunlight exposure (80 MJ) Residual yield [%] [3, 4]: 99.3% | Sunlight exposure (80 MJ) Appearance [3, 5]: A | Sunlight exposure (80 MJ) Residual yield [%] [3, 5]: 98.3% | Sunlight exposure (80 MJ) Appearance [3, 6]: A | Sunlight exposure (80 MJ) Residual yield [%] [3, 6]: 98.8% | Sunlight exposure (80 MJ) Appearance [3, 7]: B | Sunlight exposure (80 MJ) Residual yield [%] [3, 7]: 95.8% | Sunlight exposure (80 MJ) Appearance [3, 8]: A | Sunlight exposure (80 MJ) Residual yield [%] [3, 8]: 100.0% | Sunlight exposure (80 MJ) Appearance [3, 9]: A | Sunlight exposure (80 MJ) Residual yield [%] [3, 9]: 97.2% | Sunlight exposure (80 MJ) Appearance [3, 10]: A | Sunlight exposure (80 MJ) Residual yield [%] [3, 10]: 99.4% | Sunlight exposure (80 MJ) Appearance [3, 11]: B | Sunlight exposure (80 MJ) Residual yield [%] [3, 11]: 98.5% | Sunlight exposure (80 MJ) Appearance [3, 12]: A | Sunlight exposure (80 MJ) Residual yield [%] [3, 12]: 100.1% | Sunlight exposure (80 MJ) Appearance [3, 13]: B | Sunlight exposure (80 MJ) Residual yield [%] [3, 13]: 99.2% | residual yield of a drug ([3]; with a sequestering agent, compared with compositions without, Table 30): very small
